From ChEMBL document CHEMBL1201862, “PubChem BioAssay data set” (2004)
The source made the active and inactive calls.

Key:
[1] = target: Cytochrome P450 2C19 (Homo sapiens, UniProt P33261); assay: Cytochrome panel assay with activity outcomes. Panel member name: p450-cyp2c19 Compounds with AC50 equal or less than 10 uM are considered active; type: functional; conditions: read-out: AC50
[2] = target: Cytochrome P450 2C9 (Homo sapiens, UniProt P11712)
[3] = target: Cytochrome P450 2D6 (Homo sapiens, UniProt P10635);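 also: CYP2D6 member of a cytochrome P450 panel assay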
[4] = target: Cytochrome P450 3A4 (Homo sapiens, UniProt P08684);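 also: CYP3A4 tested as one member of a cytochrome P450 panel screen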
[5] = target: T1, Cytochrome P450 1A2 (Homo sapiens, UniProt P05177)
T1 sequence (P05177 whole entry): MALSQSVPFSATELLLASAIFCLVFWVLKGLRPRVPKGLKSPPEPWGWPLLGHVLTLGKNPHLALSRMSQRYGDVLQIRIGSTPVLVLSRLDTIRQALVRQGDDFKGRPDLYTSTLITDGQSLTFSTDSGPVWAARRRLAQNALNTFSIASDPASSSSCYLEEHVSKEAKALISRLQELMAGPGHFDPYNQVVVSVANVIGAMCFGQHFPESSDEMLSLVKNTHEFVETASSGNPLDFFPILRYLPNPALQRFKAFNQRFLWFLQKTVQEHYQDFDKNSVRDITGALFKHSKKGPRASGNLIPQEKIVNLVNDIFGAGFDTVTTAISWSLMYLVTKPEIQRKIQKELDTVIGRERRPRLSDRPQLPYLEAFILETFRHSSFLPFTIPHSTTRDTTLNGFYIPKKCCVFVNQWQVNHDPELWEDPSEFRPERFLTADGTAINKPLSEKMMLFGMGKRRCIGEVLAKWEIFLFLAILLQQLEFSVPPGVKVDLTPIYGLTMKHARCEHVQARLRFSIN

[6] = target: Glyceraldehyde-3-phosphate dehydrogenase (Homo sapiens, UniProt P04406)
[7] = target: T2, Alkaline phosphatase, tissue-nonspecific isozyme (Homo sapiens, UniProt P05186); assay: human TNAP enzyme inhibitors, SAR follow-up, biochemical, luminescent, dose response (AID 1056)
T2 sequence (P05186 whole entry): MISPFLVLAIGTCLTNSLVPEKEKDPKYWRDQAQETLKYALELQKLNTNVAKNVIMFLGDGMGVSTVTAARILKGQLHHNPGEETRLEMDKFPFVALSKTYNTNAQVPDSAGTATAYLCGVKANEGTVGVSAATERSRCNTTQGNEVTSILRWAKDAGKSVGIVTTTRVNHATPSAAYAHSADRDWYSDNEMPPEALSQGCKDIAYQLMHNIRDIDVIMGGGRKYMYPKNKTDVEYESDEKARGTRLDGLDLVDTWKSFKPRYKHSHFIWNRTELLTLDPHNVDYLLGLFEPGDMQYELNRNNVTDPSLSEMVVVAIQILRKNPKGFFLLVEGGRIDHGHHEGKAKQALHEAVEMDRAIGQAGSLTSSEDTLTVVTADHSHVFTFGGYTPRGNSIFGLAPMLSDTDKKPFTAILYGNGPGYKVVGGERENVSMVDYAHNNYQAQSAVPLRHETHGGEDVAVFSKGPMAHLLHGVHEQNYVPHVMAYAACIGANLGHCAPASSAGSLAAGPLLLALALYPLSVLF

[8] = target: T3, Protein skinhead-1 (Caenorhabditis elegans, UniProt P34707); type: functional
T3 sequence (P34707 whole entry): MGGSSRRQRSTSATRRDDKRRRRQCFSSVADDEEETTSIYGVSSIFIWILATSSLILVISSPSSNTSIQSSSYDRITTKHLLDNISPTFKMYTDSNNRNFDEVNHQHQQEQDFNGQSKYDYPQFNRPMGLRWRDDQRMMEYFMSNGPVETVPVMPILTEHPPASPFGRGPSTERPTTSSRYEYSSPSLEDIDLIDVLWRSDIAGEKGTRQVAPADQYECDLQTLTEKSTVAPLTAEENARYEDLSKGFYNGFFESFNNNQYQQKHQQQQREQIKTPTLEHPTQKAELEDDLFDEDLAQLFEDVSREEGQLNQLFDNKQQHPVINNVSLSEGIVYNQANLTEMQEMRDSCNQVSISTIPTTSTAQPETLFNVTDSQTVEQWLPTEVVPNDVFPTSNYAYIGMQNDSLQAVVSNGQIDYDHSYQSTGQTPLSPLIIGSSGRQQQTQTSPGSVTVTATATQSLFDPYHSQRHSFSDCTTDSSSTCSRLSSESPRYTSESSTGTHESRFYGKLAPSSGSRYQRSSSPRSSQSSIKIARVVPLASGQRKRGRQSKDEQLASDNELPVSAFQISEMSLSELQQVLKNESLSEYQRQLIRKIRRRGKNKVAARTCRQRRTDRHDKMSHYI

[9] = ADAM10 protease inhibitors, dose response, selectivity assay for ADAM17 exosite inhibitor project, biochemical, FRET peptide substrate, recombinant human ADAM10 (AID 743259);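 also: ADAM10 enzyme cleaving a FRET peptide substrate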
[10] = target: Disintegrin and metalloproteinase domain-containing protein 17 (Homo sapiens, UniProt P78536); assay: exosite inhibitors of ADAM17, dose response, biochemical (AID 743260)
[11] = tested on: P388; assay: cells; type: functional; conditions: Mus musculus
[12] = tested on: SN12K1; assay: cells; type: functional; conditions: Homo sapiens
[13] = NIH:OVCAR-3 ovarian cancer cell cytotoxicity, dose response, PAX8 inhibitor project, plate reader, dry powder samples (AID 743044); type: functional, cell-based
[14] = target: Paired box protein Pax-8 (Homo sapiens, UniProt Q06710); assay: inhibitors of PAX8-driven TPO luciferase reporter, dose response, RMG-I cells, cherry-pick (AID 687027); type: functional, cell-based;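 also: luciferase reporter driven by Pax8 target thyroperoxidase promoter measured by SteadyGlo luminescence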
[15] = cytotoxicity in OVCAR8 ovarian cancer cells, dose response, PAX8 project, cell-based, plate reader, dry powder samples (AID 743197); type: functional; conditions: OVCAR-8
[16] = tested on: P388/ADR; assay: cells; type: functional; conditions: Mus musculus
[17] = THP-1 cell cytotoxicity, dose response, cytotoxicity control for Vif-APOBEC3G degradation inhibitor project, THP-1 cells (AID 1117359); type: functional; conditions: Human immunodeficiency virus 1, THP-1
[18] = target: T4, Heat shock factor protein 1 (Mus musculus, UniProt P38532); assay: inhibition of MG132-induced HSE-luciferase signal, confirmation, cell-based, NIH3T3, luminescence, dose retest (AID 2382); type: functional;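 also: NIH3T3 fibroblasts with HSF1-driven luciferase reporter stressed by proteasome inhibitor MG132; luminescence from HSF1-driven luciferase expression after 8 hours of MG132 stress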
T4 sequence (P38532 whole entry): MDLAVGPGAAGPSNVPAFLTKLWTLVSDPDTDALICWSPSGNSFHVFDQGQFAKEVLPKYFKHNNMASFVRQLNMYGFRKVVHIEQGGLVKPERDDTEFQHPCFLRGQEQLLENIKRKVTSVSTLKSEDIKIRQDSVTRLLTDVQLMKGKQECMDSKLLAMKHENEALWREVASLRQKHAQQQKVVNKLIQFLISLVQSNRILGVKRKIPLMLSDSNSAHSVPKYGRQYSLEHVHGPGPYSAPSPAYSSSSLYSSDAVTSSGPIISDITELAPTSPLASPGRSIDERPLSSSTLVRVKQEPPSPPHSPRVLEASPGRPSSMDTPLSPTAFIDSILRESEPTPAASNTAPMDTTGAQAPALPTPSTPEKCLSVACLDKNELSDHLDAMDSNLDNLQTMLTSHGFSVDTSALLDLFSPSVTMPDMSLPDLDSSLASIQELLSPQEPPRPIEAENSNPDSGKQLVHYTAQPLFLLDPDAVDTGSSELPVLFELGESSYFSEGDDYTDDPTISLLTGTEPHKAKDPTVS

[19] = target: T5, Voltage-gated N-type calcium channel alpha-1B subunit/Amyloid beta A4 precursor protein-binding family A member 1 (Homo sapiens, UniProt Q00975+Q02410); type: protein assay
[20] = target: T5, Voltage-gated N-type calcium channel alpha-1B subunit/Amyloid beta A4 precursor protein-binding family A member 1; type: protein assay; remark: listed apart in the source
[21] = HEK293T cytotoxicity, dose response, cytotoxicity control for miR-122 modulator project, cell-based, inhibitor set, cherry-pick, set 2 (AID 720697); type: functional
[22] = tested on: Streptococcus sp. 'group A'; assay: growth inhibition of control SK(-) GAS strain, dose response, counter-screen for streptokinase expression inhibitor project, luminescence, kanamycin, BacTiterGlo, confirmation (AID 1900); type: functional, organism-based
[23] = tested on: Streptococcus; assay: Group A Streptococcus viability loss, dose response, counter-screen for streptokinase expression inhibitor project, luminescence, BacTiterGlo (AID 1915); type: functional, organism-based;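 also: potency for reduction of bacterial viability or growth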

Chain of Glyceraldehyde-3-phosphate dehydrogenase (P04406 whole entry): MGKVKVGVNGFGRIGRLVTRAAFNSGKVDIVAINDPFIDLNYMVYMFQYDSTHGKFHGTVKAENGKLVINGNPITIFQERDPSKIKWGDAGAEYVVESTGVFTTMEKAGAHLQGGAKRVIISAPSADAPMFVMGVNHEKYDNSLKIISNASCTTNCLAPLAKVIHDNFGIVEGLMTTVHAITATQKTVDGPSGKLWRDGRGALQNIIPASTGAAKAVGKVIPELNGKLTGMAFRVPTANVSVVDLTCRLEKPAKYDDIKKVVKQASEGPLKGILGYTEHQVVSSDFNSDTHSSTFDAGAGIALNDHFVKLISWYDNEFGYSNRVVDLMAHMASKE
Chain of Cytochrome P450 2D6 (P10635 whole entry): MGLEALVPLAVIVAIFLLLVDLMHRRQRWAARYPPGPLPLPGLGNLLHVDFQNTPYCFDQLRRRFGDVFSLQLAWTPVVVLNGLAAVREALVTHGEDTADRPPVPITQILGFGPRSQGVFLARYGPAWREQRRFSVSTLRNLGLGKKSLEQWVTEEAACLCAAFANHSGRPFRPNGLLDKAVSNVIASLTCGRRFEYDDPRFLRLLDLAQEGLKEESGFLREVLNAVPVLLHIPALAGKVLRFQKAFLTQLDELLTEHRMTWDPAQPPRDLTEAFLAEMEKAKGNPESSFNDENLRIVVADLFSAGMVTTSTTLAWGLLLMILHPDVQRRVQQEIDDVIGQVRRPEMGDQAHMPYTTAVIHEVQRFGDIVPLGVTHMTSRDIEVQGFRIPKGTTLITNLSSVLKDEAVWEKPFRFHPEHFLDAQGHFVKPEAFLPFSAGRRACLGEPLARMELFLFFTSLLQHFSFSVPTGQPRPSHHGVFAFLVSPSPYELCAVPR
Chain of Cytochrome P450 3A4 (P08684 whole entry): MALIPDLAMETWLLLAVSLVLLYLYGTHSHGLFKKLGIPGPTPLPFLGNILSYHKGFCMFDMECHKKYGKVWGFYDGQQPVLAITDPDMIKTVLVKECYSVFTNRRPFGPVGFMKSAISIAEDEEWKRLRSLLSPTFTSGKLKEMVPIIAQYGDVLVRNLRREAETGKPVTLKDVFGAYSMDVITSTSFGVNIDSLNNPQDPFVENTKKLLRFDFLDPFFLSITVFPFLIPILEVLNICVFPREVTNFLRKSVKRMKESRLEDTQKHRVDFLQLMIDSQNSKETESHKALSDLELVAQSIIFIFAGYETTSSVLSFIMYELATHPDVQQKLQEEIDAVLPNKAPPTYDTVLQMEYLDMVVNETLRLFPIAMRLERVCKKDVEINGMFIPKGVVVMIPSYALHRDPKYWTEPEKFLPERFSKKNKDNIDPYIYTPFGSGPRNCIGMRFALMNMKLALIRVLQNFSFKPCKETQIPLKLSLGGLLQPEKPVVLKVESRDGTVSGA
Chain of Cytochrome P450 2C19 (P33261 whole entry): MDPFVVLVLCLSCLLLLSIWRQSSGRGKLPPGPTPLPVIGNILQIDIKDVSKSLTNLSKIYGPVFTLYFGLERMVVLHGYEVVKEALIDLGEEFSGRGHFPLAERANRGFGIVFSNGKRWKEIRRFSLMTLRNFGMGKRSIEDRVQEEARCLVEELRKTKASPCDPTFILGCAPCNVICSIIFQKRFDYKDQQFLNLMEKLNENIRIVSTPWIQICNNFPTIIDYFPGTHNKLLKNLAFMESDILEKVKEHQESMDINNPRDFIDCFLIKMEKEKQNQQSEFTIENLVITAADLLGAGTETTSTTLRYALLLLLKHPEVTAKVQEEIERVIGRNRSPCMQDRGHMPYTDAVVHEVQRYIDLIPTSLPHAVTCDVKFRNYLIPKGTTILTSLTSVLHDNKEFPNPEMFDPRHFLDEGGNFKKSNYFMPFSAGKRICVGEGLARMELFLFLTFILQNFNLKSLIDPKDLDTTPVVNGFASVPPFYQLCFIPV
Chain of Cytochrome P450 2C9 (P11712 whole entry): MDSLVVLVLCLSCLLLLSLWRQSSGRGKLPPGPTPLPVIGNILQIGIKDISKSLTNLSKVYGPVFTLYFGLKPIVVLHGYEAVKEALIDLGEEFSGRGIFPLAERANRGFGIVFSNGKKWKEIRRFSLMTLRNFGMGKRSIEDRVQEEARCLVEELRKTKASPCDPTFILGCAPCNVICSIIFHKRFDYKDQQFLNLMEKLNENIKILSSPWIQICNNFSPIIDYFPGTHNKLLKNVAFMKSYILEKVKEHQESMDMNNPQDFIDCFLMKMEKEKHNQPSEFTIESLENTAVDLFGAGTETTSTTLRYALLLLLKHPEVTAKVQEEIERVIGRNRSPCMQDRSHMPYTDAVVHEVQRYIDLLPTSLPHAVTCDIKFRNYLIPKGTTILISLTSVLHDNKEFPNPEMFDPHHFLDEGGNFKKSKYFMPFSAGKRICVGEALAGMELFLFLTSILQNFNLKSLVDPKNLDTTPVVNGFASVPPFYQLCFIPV
Chain of Paired box protein Pax-8 (Q06710 whole entry): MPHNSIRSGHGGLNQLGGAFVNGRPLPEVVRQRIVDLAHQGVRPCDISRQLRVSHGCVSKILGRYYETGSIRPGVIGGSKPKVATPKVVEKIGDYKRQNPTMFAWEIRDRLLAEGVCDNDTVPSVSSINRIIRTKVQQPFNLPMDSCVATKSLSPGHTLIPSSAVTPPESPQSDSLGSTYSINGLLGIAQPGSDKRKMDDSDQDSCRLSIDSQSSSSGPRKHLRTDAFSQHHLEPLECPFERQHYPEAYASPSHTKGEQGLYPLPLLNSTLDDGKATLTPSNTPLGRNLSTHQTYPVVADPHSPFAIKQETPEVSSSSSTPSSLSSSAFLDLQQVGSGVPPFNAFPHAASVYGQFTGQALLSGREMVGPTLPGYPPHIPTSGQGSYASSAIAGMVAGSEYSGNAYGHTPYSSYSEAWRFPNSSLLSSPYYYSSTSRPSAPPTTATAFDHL
Chain of Disintegrin and metalloproteinase domain-containing protein 17 (P78536 whole entry, the tested form may be a part): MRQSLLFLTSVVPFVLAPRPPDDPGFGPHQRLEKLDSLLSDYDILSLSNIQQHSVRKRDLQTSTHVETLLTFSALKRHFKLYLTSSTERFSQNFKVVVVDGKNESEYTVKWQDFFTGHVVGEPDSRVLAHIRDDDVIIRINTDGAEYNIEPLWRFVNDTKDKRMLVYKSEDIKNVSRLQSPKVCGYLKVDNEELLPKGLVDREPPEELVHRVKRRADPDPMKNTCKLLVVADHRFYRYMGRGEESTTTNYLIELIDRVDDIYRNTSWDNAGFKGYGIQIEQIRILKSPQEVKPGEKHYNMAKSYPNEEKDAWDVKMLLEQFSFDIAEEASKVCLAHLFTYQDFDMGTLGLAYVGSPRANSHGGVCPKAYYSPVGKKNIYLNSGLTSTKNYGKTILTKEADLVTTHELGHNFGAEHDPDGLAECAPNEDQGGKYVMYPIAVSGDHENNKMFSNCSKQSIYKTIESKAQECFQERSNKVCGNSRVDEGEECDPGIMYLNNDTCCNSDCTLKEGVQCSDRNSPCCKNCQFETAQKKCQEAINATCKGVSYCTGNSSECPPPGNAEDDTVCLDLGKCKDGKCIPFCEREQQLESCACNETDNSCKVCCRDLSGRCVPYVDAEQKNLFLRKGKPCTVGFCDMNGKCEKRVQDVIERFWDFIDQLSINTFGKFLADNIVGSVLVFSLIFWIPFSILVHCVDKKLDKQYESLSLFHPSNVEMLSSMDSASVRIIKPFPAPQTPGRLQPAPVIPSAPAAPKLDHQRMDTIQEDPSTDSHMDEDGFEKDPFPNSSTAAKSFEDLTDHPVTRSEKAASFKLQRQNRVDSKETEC

Structure (SMILES): Cc1cccc(C(=O)N2CCC(c3nc(-c4ccc(S(=O)(=O)N5CCOCC5)cc4)no3)CC2)c1
- AC50 [1]: 15.8 µM (inconclusive)
- AC50 [2]: 39.8 µM (inconclusive)
- AC50 [3]: 0.00316 µM (inconclusive)
- AC50 [4]: inconclusive

Structure (SMILES): C[C@]12Cc3cn4c(nc3C=C1CC[C@H]1[C@@H]2CC[C@@]2(C)[C@H]1CC[C@@]2(O)C#N)nc1ccccc14
- AC50 [1]: 7.94 µM (inconclusive)
- AC50 [2]: 10 µM (inconclusive)
- AC50 [5]: 15.8 µM (inconclusive)
- AC50 [3]: 25.1 µM (inconclusive)
- AC50 [4]: inconclusive

Structure (SMILES): O=S(=O)(Nc1cccnc1)c1ccc(Br)cc1OC(F)(F)F
- IC50 [6]: > 100 µM (not active)
- IC50 [7]: 10.9 µM (active)

Structure (SMILES): c1ccc(Oc2cc(-c3ccccc3)ncn2)cc1
- AC50 [4]: inconclusive
- IC50 [8]: 17.4 µM (active)

Structure (SMILES): COc1ccc(NC(=O)C2CCN(S(=O)(=O)c3c(C)noc3/C=C/N(C)C)CC2)cc1
- IC50 [9]: 23.9 µM (inactive)
- IC50 [10]: > 69.5 µM (inactive)

Structure (SMILES): Cc1ccccc1OCC(=O)Nc1ccc(N2CCN(C(=O)C(C)C)CC2)c(Cl)c1
- AC50 [5]: 15.8 µM (inconclusive)
- AC50 [4]: inconclusive

Structure (SMILES): CCC(/C=C/C1OC(=O)C=CC1C)=C\C(C)C/C=C/C(C)=C/C(C)C(=O)C(C)C(O)C(C)C/C(C)=C/C(=O)O (stereo unspecified)
- GI50 [11]: 0.914 µM (active)
- GI50 [12]: 1.56 µM (inactive)

Structure (SMILES): C[C@@H]1CN([C@H](C)CO)S(=O)(=O)c2ccc(-c3ccc(C#N)cc3)cc2O[C@@H]1CN(C)Cc1cccc(F)c1
- AC50 [13]: 29.1 µM (active)
- AC50 [14]: 3.4 µM (active)
- AC50 [15]: 25.8 µM (active)

Structure (SMILES): O=C(NN1C(=O)CS(=O)(=O)C1c1ccc(Cl)c(Cl)c1)c1ccncc1 (stereo unspecified)
- GI50 [11]: 25.6 µM (inactive)
- GI50 [16]: 36.6 µM (inactive)
- GI50 [12]: > 100 µM (inactive)

Structure (SMILES): CN(C)CCNC(=O)c1cccc2ccc(-c3ccc(F)cc3)nc12
- GI50 [11]: 0.61 µM (active)
- GI50 [16]: 1.75 µM (inactive)
- GI50 [12]: 2.96 µM (inactive)

Structure (SMILES): CCN(CC)S(=O)(=O)c1ccc(C(=O)NC2=C(C(=O)OC)SCC2)cc1
- AC50 [4]: inconclusive

Structure (SMILES): CCOc1cc(C)c(C)cc1S(=O)(=O)Nc1cccnc1
- IC50 [6]: > 100 µM (not active)
- IC50 [7]: 1.7 µM (active)

Structure (SMILES): c1ccc(-c2noc(CSc3nnnn3C3CCCCC3)n2)cc1
- AC50 [3]: 17.8 µM (inconclusive)
- AC50 [4]: inconclusive

Structure (SMILES): NNC(=O)c1ccc(N2CCc3ccccc32)c([N+](=O)[O-])c1
- CC50 [17]: > 40 µM (active)
- EC50 [18]: > 195 µM (not active)

Structure (SMILES): C[N+](C)([O-])CCOc1cc2c(c3ccccc13)-c1ccccc1C2=O
- GI50 [11]: 6.19 µM (inactive)
- GI50 [16]: 8.79 µM (inactive)
- GI50 [12]: 4.37 µM (inactive)

Structure (SMILES): CC(=O)NC1=NC(=O)/C(=C/c2cn(C(C)=O)nc2-c2ccccc2)S1
- IC50 [19]: > 56.8 µM (not active)
- IC50 [20]: > 50 µM (inactive)

Structure (SMILES): N#Cc1c(N)nc2c(c1-c1cccs1)CCCC2
- AC50 [21]: 6.16 µM (active)

Structure (SMILES): CCCC[C@@H]1CN=C(S)N1CCc1cccc2ccccc12
- CC50 [17]: > 40 µM (active)

Structure (SMILES): O=C1C2CCCCC2C(=O)N1c1nccs1 (stereo unspecified)
- IC50 [6]: > 10 µM (inconclusive)
- IC50 [7]: > 10 µM (inactive)

Structure (SMILES): COc1nc(SC)nc2c1cnn2C1OC(C(O)CO)C(OC)C1O (stereo unspecified)
- GI50 [11]: > 39.4 µM (inactive)
- GI50 [16]: 41.3 µM (inactive)
- GI50 [12]: > 54.3 µM (inactive)

Structure (SMILES): O=[N+]([O-])c1ccc2[nH]c3c(-c4ccccc4)nccc3c2c1
- GI50 [11]: 10.9 µM (inactive)
- GI50 [16]: 12.9 µM (inactive)
- GI50 [12]: 20.5 µM (inactive)

Structure (SMILES): CN(C)CCCNC(=O)C[C@H]1CC[C@H]2[C@H](COc3ccc(NC(=O)NC4CCCC4)cc3C(=O)N2C)O1
- AC50 [21]: 0.509 µM (active)

Structure (SMILES): CCNC(=O)C[C@H]1CC[C@H]2[C@H](COc3ccc(NS(C)(=O)=O)cc3C(=O)N2C)O1
- AC50 [21]: 3.57 µM (active)

Structure (SMILES): CCCN=C1C(=O)C2=C(C(O)=C1C)N1CC3NC3[C@@]1(OC)C2COC(N)=O (stereo partly specified)
- EC50 [22]: < 0.06 µM (active)
- CC50 [17]: 1.52 µM (active)
- EC50 [23]: 0.153 µM (active)

Structure (SMILES): O=C(Cn1c(=O)c2ccccc2n(CC(=O)N2CCCCC2)c1=O)N1CCCCC1
- AC50 [21]: 6.5 µM (active)
